Laboratory results reported in article PMC5421785, “Citrullination only infrequently impacts peptide binding to HLA class II MHC” (PLoS ONE, 2017).
Where two headings read alike, the source gives them in different places. Square brackets hold non-standard residues; d marks the D form. Ends that are not written are not given here. Peptide text beside a SMILES is read from it. Cit = NC(=O)NCCC[C@H](N)C(=O)O

Tests used:
HLA-DRB1*01:01 = target: T1, HLA-DRB1*01:01 (Homo sapiens, UniProt P01903+P01911, A100R/D57E/F55L/F60I/F76Y/I96L/L162R/M171V/P40L/Q125E/R42F/V115G/Y59C); assay: HLA class II peptide binding, inhibition of radiolabeled peptide binding to purified MHC; conditions: for DRB1*01:01 binding capacity, WT/cit ratio: ratio of WT IC50 to Cit IC50, >1 = citrullination increases binding
T1 construct: EBV transformed homozygous cell lines were used as sources of MHC molecules; endogenous in cells; host or cells: EBV transformed homozygous cell lines

HLA-DRB1*04:01 = target: T2, HLA-DRB1*04:01 (Homo sapiens, UniProt P01903+P01911, A100K/A169T/F76Y/I96L/K127E/L162R/M171V/N62H/P40V/Q125Y/R42H/S133A/S149N/S66Y/V115G/V209L/W38E); assay: as above; conditions: for DRB1*04:01 binding capacity, WT/cit ratio: ratio of WT IC50 to Cit IC50, >1 = citrullination increases binding
T2 construct: EBV transformed homozygous cell lines were used as sources of MHC molecules; endogenous in cells; host or cells: EBV transformed homozygous cell lines

[1] = citrullinated 15-mer peptide (X = citrulline), purified HLA-DRB1*01:01, read-out: DRB1*01:01 binding capacity, Cit peptide (IC50 nM)
[2] = citrullinated 15-mer peptide (X = citrulline), purified HLA-DRB1*04:01, read-out: DRB1*04:01 binding capacity, Cit peptide (IC50 nM)
[3] = citrullinated 15-mer (X), purified MHC, inhibition of radiolabeled peptide binding, dash = IC50 >40,000 nM, read-out: DRB1*01:01 binding capacity, Cit peptide (IC50 nM)
[4] = citrullinated 15-mer (X), purified MHC, inhibition of radiolabeled peptide binding, dash = IC50 >40,000 nM, read-out: DRB1*04:01 binding capacity, Cit peptide (IC50 nM)

Compound | IC50 (HLA-DRB1*01:01; [1]) [nM] | IC50 (HLA-DRB1*04:01; [2]) [nM] | IC50 (HLA-DRB1*01:01; [3]) [nM] | IC50 (HLA-DRB1*04:01; [4]) [nM] | other results
C[C@H](NC(=O)[C@@H]1CCCN1C(=O)CNC(=O)[C@@H]1CCCN1)C(=O)NCC(=O)N1CCC[C@H]1C(=O)N[C@H](C(=O)NCC(=O)N[C@@H](CCCCN)C(=O)N[C@@H](CCC(N)=O)C(=O)NCC(=O)N[C@@H](CC(=O)O)C(=O)N[C@@H](CCCNC(N)=O)C(=O)NCC(=O)N[C@@H](CCC(=O)O)C(=O)O)[C@@H](C)O [PGPAGPTGKQGDXGE] (H-PGPAGPTGKQGD[Cit]GE-OH; N-terminus and C-terminus assumed) | > 40000 | > 40000 | – | – | DRB1*01:01 binding capacity, WT/cit ratio (HLA-DRB1*01:01): 1.0; DRB1*04:01 binding capacity, WT/cit ratio (HLA-DRB1*04:01): 1.0
CSCC[C@H](NC(=O)[C@H](CCC(=O)O)NC(=O)[C@H](CCCNC(=N)N)NC(=O)[C@H](CCSC)NC(=O)[C@H](CCC(N)=O)NC(=O)[C@H](CCCNC(N)=O)NC(=O)[C@H](CCC(=O)O)NC(=O)[C@H](CC(C)C)NC(=O)[C@H](CO)NC(=O)[C@H](CCC(=O)O)NC(=O)[C@H](CC(N)=O)NC(=O)[C@@H](N)[C@@H](C)O)C(=O)N[C@@H](CCC(=O)O)C(=O)N[C@@H](CCC(=O)O)C(=O)N[C@@H](CC(N)=O)C(=O)O [TNESLEXQMREMEEN] (H-TNESLE[Cit]QMREMEEN-OH; N-terminus and C-terminus assumed) | > 40000 | > 40000 | – | – | DRB1*01:01 binding capacity, WT/cit ratio (HLA-DRB1*01:01): 0.318; DRB1*04:01 binding capacity, WT/cit ratio (HLA-DRB1*04:01): 1.0
MARHLREYQDLLNVK [Vimentin 376 WT] | – | – | – | – | IC50 (HLA-DRB1*01:01; wild-type (unmodified Arg) 15-mer peptide, purified HLA-DRB1*01:01, read-out: DRB1*01:01 binding capacity, WT peptide (IC50 nM)): 270 nM; IC50 (HLA-DRB1*04:01; wild-type (unmodified Arg) 15-mer peptide, purified HLA-DRB1*04:01, read-out: DRB1*04:01 binding capacity, WT peptide (IC50 nM)): 1780 nM
CC[C@H](C)[C@H](NC(=O)[C@H](CC(C)C)NC(=O)[C@@H](N)CC(C)C)C(=O)N[C@@H](CCC(N)=O)C(=O)NCC(=O)N[C@@H](CO)C(=O)N[C@@H](CC(N)=O)C(=O)N[C@@H](CC(=O)O)C(=O)N[C@H](C(=O)N[C@@H](CCC(=O)O)C(=O)N[C@H](C(=O)N[C@@H](CCCNC(N)=O)C(=O)N[C@@H](C)C(=O)N[C@@H](CCC(=O)O)C(=O)NCC(=O)O)[C@@H](C)CC)C(C)C [LLIQGSNDVEIXAEG] (H-LLIQGSNDVEI[Cit]AEG-OH) | – | – | – | – | IC50 (HLA-DRB1*01:01; citrullinated peptide as listed (X at Cit position), read-out: DRB1*01:01 binding capacity Cit peptide (IC50 nM)): 998 nM; IC50 (HLA-DRB1*04:01; citrullinated peptide as listed (X at Cit position), read-out: DRB1*04:01 binding capacity Cit peptide (IC50 nM)): 8740 nM
CSCC[C@H](NC(=O)[C@H](CCC(=O)O)NC(=O)[C@H](CCC(=O)O)NC(=O)[C@@H](N)CCC(=O)O)C(=O)N[C@@H](CCCNC(N)=O)C(=O)N[C@@H](CCC(=O)O)C(=O)N[C@@H](CC(C)C)C(=O)N[C@@H](CCCNC(=N)N)C(=O)N[C@@H](CCCNC(=N)N)C(=O)N[C@@H](CCC(N)=O)C(=O)N[C@H](C(=O)N[C@@H](CC(=O)O)C(=O)N[C@@H](CCC(N)=O)C(=O)N[C@@H](CC(C)C)C(=O)N[C@H](C(=O)O)[C@@H](C)O)C(C)C [EEEMXELRRQVDQLT] (H-EEEM[Cit]ELRRQVDQLT-OH) | – | – | 1250 | 6570 | –

Second part, led by results:

IC50 (HLA-DRB1*01:01; [1]) [nM] | IC50 (HLA-DRB1*04:01; [2]) [nM] | IC50 (HLA-DRB1*01:01; [3]) [nM] | IC50 (HLA-DRB1*04:01; [4]) [nM] | Compound | other results
– | – | 21 | 1090 | CC(C)C[C@H](NC(=O)[C@H](C)NC(=O)[C@H](CO)NC(=O)CNC(=O)[C@H](CC(C)C)NC(=O)[C@H](CO)NC(=O)[C@H](Cc1ccc(O)cc1)NC(=O)[C@@H](NC(=O)[C@@H](N)CCCNC(=N)N)[C@@H](C)O)C(=O)N[C@@H](CCCNC(=N)N)C(=O)N1CCC[C@H]1C(=O)N[C@@H](CO)C(=O)N[C@H](C(=O)N[C@@H](CO)C(=O)N[C@@H](CCCNC(N)=O)C(=O)O)[C@@H](C)O [RTYSLGSALRPSTSX] (H-RTYSLGSALRPSTS[Cit]-OH) | –
– | – | 41 | 3220 | CC(C)C[C@H](NC(=O)[C@H](CCCNC(N)=O)NC(=O)[C@@H](NC(=O)[C@H](C)NC(=O)[C@H](CO)NC(=O)[C@H](CO)NC(=O)[C@H](CCCNC(=N)N)NC(=O)[C@@H](NC(=O)[C@H](C)NC(=O)[C@@H](N)Cc1ccc(O)cc1)[C@@H](C)O)C(C)C)C(=O)N[C@@H](CCCNC(=N)N)C(=O)N[C@@H](CO)C(=O)N[C@@H](CO)C(=O)N[C@H](C(=O)N1CCC[C@H]1C(=O)O)C(C)C [YATRSSAVXLRSSVP] (H-YATRSSAV[Cit]LRSSVP-OH) | –
578 | > 40000 | – | – | CC(C)C[C@H](NC(=O)CNC(=O)[C@H](CCC(N)=O)NC(=O)[C@H](C)NC(=O)CN)C(=O)N[C@@H](CCC(N)=O)C(=O)NCC(=O)N1CCC[C@H]1C(=O)N[C@@H](CCCNC(N)=O)C(=O)NCC(=O)N[C@@H](CC(C)C)C(=O)N1CCC[C@H]1C(=O)NCC(=O)N[C@H](C(=O)N1CCC[C@H]1C(=O)O)[C@@H](C)O [GAQGLQGPXGLPGTP] (H-GAQGLQGP[Cit]GLPGTP-OH) | –
514 | > 40000 | – | – | CC(C)C[C@H](NC(=O)CNC(=O)[C@@H]1CCCN1C(=O)[C@H](C)NC(=O)CNC(=O)[C@@H]1CCCN1C(=O)[C@H](CC(C)C)NC(=O)CN)C(=O)N[C@@H](CCCNC(N)=O)C(=O)NCC(=O)N[C@@H](CC(C)C)C(=O)N1CCC[C@H]1C(=O)NCC(=O)N[C@@H](CCCCN)C(=O)N[C@@H](CC(=O)O)C(=O)O [GLPGAPGLXGLPGKD] (H-GLPGAPGL[Cit]GLPGKD-OH) | –
